Experimental data: PubChem BioAssay AID652247 (Sanford-Burnham Center for Chemical Genomics, 2013)
Active and inactive are the calls of the source. No rule for the calls is given here.

Target: NEDD8-conjugating enzyme Ubc12 (Homo sapiens) + NEDD8-activating enzyme E1 regulatory subunit (Homo sapiens) (UniProt P61081+Q13564)
Experiment: inhibitors of CUL1 neddylation, potency, dose response, biochemical, TR-FRET (AID 652247)
Conditions: in vitro CUL1 neddylation

Chain of NEDD8-conjugating enzyme Ubc12 (Homo sapiens) + NEDD8-activating enzyme E1 regulatory subunit (Homo sapiens) (P61081 whole entry, looked up): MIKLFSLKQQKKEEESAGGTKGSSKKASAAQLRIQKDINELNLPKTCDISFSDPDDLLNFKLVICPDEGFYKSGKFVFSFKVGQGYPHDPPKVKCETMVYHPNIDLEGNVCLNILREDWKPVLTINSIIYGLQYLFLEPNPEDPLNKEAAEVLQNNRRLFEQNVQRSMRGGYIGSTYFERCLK
Chain of NEDD8-conjugating enzyme Ubc12 (Homo sapiens) + NEDD8-activating enzyme E1 regulatory subunit (Homo sapiens) (Q13564 whole entry, looked up): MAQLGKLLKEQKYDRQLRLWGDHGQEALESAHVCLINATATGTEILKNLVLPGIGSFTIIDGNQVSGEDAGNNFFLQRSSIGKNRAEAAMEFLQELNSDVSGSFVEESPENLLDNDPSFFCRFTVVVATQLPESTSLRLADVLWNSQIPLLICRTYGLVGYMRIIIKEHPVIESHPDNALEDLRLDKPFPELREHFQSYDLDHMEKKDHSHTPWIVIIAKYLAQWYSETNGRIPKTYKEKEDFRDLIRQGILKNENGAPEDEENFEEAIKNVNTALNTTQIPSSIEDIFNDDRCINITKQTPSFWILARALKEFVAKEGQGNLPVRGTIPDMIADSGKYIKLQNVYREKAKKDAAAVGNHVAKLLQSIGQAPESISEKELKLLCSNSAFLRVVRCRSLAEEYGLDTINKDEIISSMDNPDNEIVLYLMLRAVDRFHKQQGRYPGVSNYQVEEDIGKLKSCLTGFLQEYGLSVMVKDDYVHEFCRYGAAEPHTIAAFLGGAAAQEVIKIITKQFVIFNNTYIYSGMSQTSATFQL

Row | SMILES | IC50
1 | Cc1c(Cc2ccccc2)c(=O)oc2c(C)c(OCc3nn[nH]n3)ccc12 | > 100 µM (inactive)
2 | O=C(O)CCc1ccc(-c2ccccc2)n1CC1CCCO1 (stereo unspecified) | inactive
3 | CCN(CC)c1ccc(/C=N/NC(=O)C(O)c2ccccc2)cc1 (stereo unspecified) | inactive
4 | CCN(CC)CCOC(=O)c1ccc(N/C=C(/C#N)c2nc(-c3ccc(OC)cc3)cs2)cc1 | > 100 µM (inactive)
5 | NNC(=O)c1ccc(CSc2cccc3cccnc23)cc1 | inactive
6 | CN(C)c1ccc(/C=N/NC(=O)COc2ccccc2)cc1 | inactive
7 | CCCCn1c(O)c(/C=N/NC(=O)c2ccncc2)c(=O)[nH]c1=S | inactive
8 | CCN1CCN(C(=O)c2ccc3nc(-c4ccccc4)c(-c4ccccc4)nc3c2)CC1 | inactive
9 | Nc1c2c(=O)oc(-c3ccccc3)cc2nn1-c1ccccc1 | inactive
10 | Nc1c(C(=O)Nc2ccccc2)c2nc3ccccc3nc2n1CCCN1CCOCC1 | inactive
11 | Cc1cc(=O)oc2cc(NC(=O)CN3C(=O)NC(C)(c4ccccc4)C3=O)ccc12 (stereo unspecified) | inactive
12 | COc1ccccc1/C=N/NC(=O)c1ccccc1NS(=O)(=O)c1ccc(C)cc1 | inactive
13 | c1ccc(-c2oc3ncnc(NCCCN4CCOCC4)c3c2-c2ccccc2)cc1 | inactive
14 | Oc1ccc(Br)cc1C=Nc1ccc2c3c(cccc13)CC2 | 12.1 µM
15 | CCc1ccc(-c2cnc3nc[nH]c(=O)c3n2)cc1 | 14.4 µM
16 | COCCN(C(=O)COC(=O)c1cc2ccccc2cc1OC)c1c(N)n(Cc2ccccc2)c(=O)[nH]c1=O | inactive
17 | Nc1nnc(-c2cc3ccccc3oc2=O)s1 | > 100 µM (inactive)
18 | CSc1ccc(/C=C2\CCn3c2nc2cc(C(=O)O)ccc2c3=O)cc1 | 19.4 µM
19 | COC(=O)C1=C(C)NC2=C(C(=O)CCC2)C1c1ccc(-c2ccsc2C(=O)OC)o1 (stereo unspecified) | inactive
20 | CS(=O)(=O)c1ccc2nc(NC(=O)c3ccc(Cl)nc3)sc2c1 | 14 µM
21 | c1cn2c(-c3ccoc3)cncc2n1 | inactive
